According to patent publication US20110039893A1, “GSK-3BETA INHIBITOR” (Takeda Pharmaceutical Company Limited, priority 2006, published 2011):

target: T1, recombinant GSK-3β enzyme (Homo sapiens, UniProt P49841); test: GSK-3β inhibitory activity evaluation (Kinase Glo luminescence, recombinant enzyme); format: biochemical; conditions: recombinant human GSK-3β 100 ng, glycogen synthase-derived substrate peptide, 2.5 μM ATP solution, 30 min room temperature
T1 construct: FLAG (N); made in house; host or cells: Sf-21 insect cells, recombinant baculovirus (pFASTBAC1, BAC-TO-BAC)
Description: Human GSK-3β gene was cloned by PCR using human brain cDNA (Clontech; trade name: QUICK-Clone cDNA) as a template and a primer set (GSK3β-U: 5′-[…] CTT-3′ (SEQ ID NO: 1) and GSK3β-L: 5′-[…]-3′ (SEQ ID NO: 2)) prepared by reference to the base sequence of GSK-3β gene registered under an accession No. NM_002093 in the GenBank.
PCR was performed according to the protocol attached to KOD plus DNA polymerase (TOYOBO CO., LTD.). The obtained PCR product was subjected to agarose gel (1%) electrophoresis, and DNA fragment (1.2 kb) containing GSK-3β gene was recovered from the gel, and digested with restriction enzymes EcoR I and Sal I. DNA after treatment with restriction enzymes was subjected to agarose gel (1%) electrophoresis, and the obtained DNA fragment was recovered, and ligated to plasmid pFASTBAC1 (Invitrogen) digested with restriction enzymes EcoR I and Sal I to give expression plasmid pFB-GSK3β. The base sequence of the inserted fragment was confirmed to match the object sequence. Using BAC-TO-BAC Baculovirus Expression System (Invitrogen), virus stock BAC-GSK3β of recombinant Baculovirus was prepared.
Sf-21 cells (Invitrogen) were inoculated to 150 ml Sf-900 II SEM medium (Invitrogen) containing 10% fetal bovine serum to 1×10^6 cells/ml and cultured at 27° C. for 24 hr. To the obtained culture medium was added the virus stock BAC-GSK3β of recombinant Baculovirus obtained above by 150 μl each, and the cells were further cultured for 60 hr. The culture medium was centrifuged (3000 rpm, 10 min) to separate the cells, and the cells were washed once with PBS. The cells were suspended in 10 ml of cell lysis buffer (25 mM HEPES (pH 7.5), 1% Triton X, 130 mM sodium chloride, 1 mM EDTA, 1 mM Dithiothreitol, 25 mM β-glycerophosphate, Protease inhibitor Complete (Boehringer), 1 mM sodium orthovanadate), treated 4 times in a homogenizer (POLYTRON) at 20000 rpm, 30 sec to disrupt the cells. The cell disrupt solution was centrifuged (40000 rpm, 45 min), and GSK-3β was purified from the obtained supernatant using Anti-FLAG M2 Affinity Gel (Sigma Ltd.).
To 37.5 μl of a reaction solution (25 mM HEPES (pH 7.5), 10 mM magnesium acetate, 1 mM DTT, 0.01% bovine serum albumin (Wako Pure Chemical Industries, Ltd.)) containing recombinant GSK-3β enzyme (100 ng) obtained above and substrate peptide ([…]pSEDEEE (SEQ ID NO: 3), pS is phosphorylated serine) (100 ng) derived from glycogen synthase was added a test compound (2.5 μl) dissolved in DMSO, and the mixture was incubated at room temperature for 5 min. To the obtained mixture was added ATP solution (2.5 μM ATP, 10 μl), and the mixture was reacted at room temperature for 30 min. After the reaction, the reaction was quenched by adding 50 μL of Kinase Glo Reagent (Promega) to the reaction solution. After reaction at room temperature for 10 min, the luminescence amount was measured using an ARVO multilabel counter (PerkinElmer Life Sciences). The concentration of the test compound necessary for inhibiting the luminescence amount by 50% (IC50 value) was calculated by PRISM 3.0 (Graphpad software).

T1 sequence (P49841 whole entry): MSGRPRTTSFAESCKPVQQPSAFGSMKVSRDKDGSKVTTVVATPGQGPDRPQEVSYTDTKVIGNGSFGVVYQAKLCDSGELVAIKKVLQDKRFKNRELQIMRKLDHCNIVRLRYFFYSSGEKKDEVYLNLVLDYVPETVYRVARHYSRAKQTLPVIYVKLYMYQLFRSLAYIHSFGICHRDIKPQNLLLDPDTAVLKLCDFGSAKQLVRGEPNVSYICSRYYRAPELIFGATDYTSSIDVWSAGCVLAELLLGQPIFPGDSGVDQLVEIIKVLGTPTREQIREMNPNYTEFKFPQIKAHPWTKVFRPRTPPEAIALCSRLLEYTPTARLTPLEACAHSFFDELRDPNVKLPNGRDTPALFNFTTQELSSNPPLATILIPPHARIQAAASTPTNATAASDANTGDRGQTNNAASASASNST

Row | IC50 | Compound
1 | < 100 nM | O=C(NCc1ccccn1)Nc1cc(N2CC(c3ccccc3)CC2=O)ccn1 (single isomer, unassigned; (-)) [Example 5, (−)-N-(4-(2-oxo-4-phenylpyrrolidin-1-yl)pyridin-2-yl)-N′-(pyridin-2-ylmethyl)urea]
2 | 280 nM | O=C(NCc1ccc2c(c1)OCO2)Nc1cc(N2CC(c3ccccc3)CC2=O)ccn1 (centres unmarked) [Example 13, N-(1,3-benzodioxol-5-ylmethyl)-N′-(4-(2-oxo-4-phenylpyrrolidin-1-yl)pyridin-2-yl)urea]
3 | 100 nM | O=C(NCc1ccccn1)Nc1cc(N2CC(c3cccc(C(F)(F)F)c3)CC2=O)ccn1 (centres unmarked) [Example 25, N-(4-(2-oxo-4-(3-(trifluoromethyl)phenyl)pyrrolidin-1-yl)pyridin-2-yl)-N′-(pyridin-2-ylmethyl)urea]
4 | 100 nM | O=C(NCc1ccccn1)Nc1cc(N2CC(c3cccc(F)c3)CC2=O)ccn1 (centres unmarked) [Example 29, N-(4-(4-(3-fluorophenyl)-2-oxopyrrolidin-1-yl)pyridin-2-yl)-N′-(pyridin-2-ylmethyl)urea]
5 | < 100 nM | O=C(NCc1ccccn1)Nc1cc(N2CC(CCc3ccccc3)CC2=O)ccn1 (centres unmarked) [Example 37, N-(4-(2-oxo-4-(2-phenylethyl)pyrrolidin-1-yl)pyridin-2-yl)-N′-(pyridin-2-ylmethyl)urea]
6 | < 100 nM | O=C(NCc1ccccn1)Nc1cc(N2CC(c3ccccc3)OC2=O)ccn1 (centres unmarked) [Example 42, N-(4-(2-oxo-5-phenyl-1,3-oxazolidin-3-yl)pyridin-2-yl)-N′-(pyridin-2-ylmethyl)urea]
7 | < 100 nM | O=C(NCc1ccccn1)Nc1cc(N2CC(COc3ccccc3)OC2=O)ccn1 (centres unmarked) [Example 45, N-(4-(2-oxo-5-(phenoxymethyl)-1,3-oxazolidin-3-yl)pyridin-2-yl)-N′-(pyridin-2-ylmethyl)urea]
8 | < 100 nM | O=C(NCc1ccccn1)Nc1cc(N2CC(COCc3ccccc3)OC2=O)ccn1 (centres unmarked) [Example 46, N-(4-(5-((benzyloxy)methyl)-2-oxo-1,3-oxazolidin-3-yl)pyridin-2-yl)-N′-(pyridin-2-ylmethyl)urea]
9 | < 100 nM | CC1(c2ccccc2)CN(c2ccnc(NC(=O)NCc3ccccn3)c2)C(=O)O1 (centres unmarked) [Example 49, N-(4-(5-methyl-2-oxo-5-phenyl-1,3-oxazolidin-3-yl)pyridin-2-yl)-N′-(pyridin-2-ylmethyl)urea]
10 | < 100 nM | CC1CCN(c2ccnc(NC(=O)NCc3ccccn3)c2)C1=O (centres unmarked) [Example 51, N-(4-(3-methyl-2-oxopyrrolidin-1-yl)pyridin-2-yl)-N′-((pyridin-2-yl)methyl)urea]
11 | < 100 nM | CC1(C)C(=O)N(c2ccnc(NC(=O)NCc3ccccn3)c2)c2ccccc21 [Example 58, N-(4-(3,3-dimethyl-2-oxo-2,3-dihydro-1H-indol-1-yl)pyridin-2-yl)-N′-((pyridin-2-yl)methyl)urea]
12 | < 100 nM | CC1(C)C(=O)N(c2ccnc(NC(=O)NCc3ccccn3)c2)c2cccnc21 [Example 59, N-(4-(3,3-dimethyl-2-oxo-2,3-dihydro-1H-pyrrolo[3,2-b]pyridin-1-yl)pyridin-2-yl)-N′-(pyridin-2-ylmethyl)urea]
13 | < 100 nM | O=C(NCc1ccccn1)Nc1cc(-n2c(=O)oc3ccccc32)ccn1 [Example 64, N-(4-(2-oxo-1,3-benzoxazol-3(2H)-yl)pyridin-2-yl)-N′-(pyridin-2-ylmethyl)urea]
14 | < 100 nM | Cc1ccc2oc(=O)n(-c3ccnc(NC(=O)NCc4ccccn4)c3)c2c1 [Example 66, N-(4-(5-methyl-2-oxo-1,3-benzoxazol-3(2H)-yl)pyridin-2-yl)-N′-(pyridin-2-ylmethyl) urea]
15 | < 100 nM | O=C(NCc1ccccn1)Nc1cc(NC(=O)c2ccccc2)ccn1 [Example 69, N-(2-(((pyridin-2-ylmethyl)carbamoyl)amino)pyridin-4-yl)benzamide]
16 | 220 nM | O=C(CCc1ccccn1)Nc1cc(N2CC(c3ccccc3)CC2=O)ccn1 (centres unmarked) [Example 75, N-(4-(2-oxo-4-phenylpyrrolidin-1-yl)pyridin-2-yl)-3-(pyridin-2-yl)propanamide]
17 | 160 nM | O=C(CCc1ccccn1)Nc1cc(N2CC(c3ccccc3)OC2=O)ccn1 (centres unmarked) [Example 76, N-(4-(2-oxo-5-phenyl-1,3-oxazolidin-3-yl)pyridin-2-yl)-3-(pyridin-2-yl)propanamide]
18 | < 100 nM | O=C(CCc1nc2ccccc2s1)Nc1cc(N2CC(c3ccccc3)OC2=O)ccn1 (centres unmarked) [Example 78, 3-(1,3-benzothiazol-2-yl)-N-(4-(2-oxo-5-phenyl-1,3-oxazolidin-3-yl)pyridin-2-yl)propanamide]
19 | 230 nM | O=C(Cc1cccs1)Nc1cc(N2CC(c3ccccc3)OC2=O)ccn1 (centres unmarked) [Example 79, N-(4-(2-oxo-5-phenyl-1,3-oxazolidin-3-yl)pyridin-2-yl)-2-(2-thienyl)acetamide]

Further lines, the compound ahead of its results:

Row | Compound | IC50
20 | O=C(NCc1ccccn1)Nc1cc(N2CC(c3ccccc3)CC2=O)ccn1 (centres unmarked) [Example 4, N-(4-(2-oxo-4-phenylpyrrolidin-1-yl)pyridin-2-yl)-N′-(pyridin-2-ylmethyl)urea] | < 100 nM
21 | O=C(NCc1cccnc1)Nc1cc(N2CC(c3ccccc3)CC2=O)ccn1 (centres unmarked) [Example 7, N-(4-(2-oxo-4-phenylpyrrolidin-1-yl)pyridin-2-yl)-N′-(pyridin-3-ylmethyl)urea] | 190 nM
22 | COc1ccc(C2CC(=O)N(c3ccnc(NC(=O)NCc4ccccn4)c3)C2)cc1 (centres unmarked) [Example 21, N-(4-(4-(4-methoxyphenyl)-2-oxopyrrolidin-1-yl)pyridin-2-yl)-N′-(pyridin-2-ylmethyl)urea] | 120 nM
23 | O=C(NCc1ccccn1)Nc1cc(N2CC(Cc3ccccc3)CC2=O)ccn1 (centres unmarked) [Example 34, N-(4-(4-benzyl-2-oxopyrrolidin-1-yl)pyridin-2-yl)-N′-((pyridin-2-yl)methyl)urea] | < 100 nM
24 | O=C(NCc1ccccn1)Nc1cc(N2CC(Cc3ccccc3)OC2=O)ccn1 (centres unmarked) [Example 43, N-(4-(5-benzyl-2-oxo-1,3-oxazolidin-3-yl)pyridin-2-yl)-N′-(pyridin-2-ylmethyl)urea] | < 100 nM
25 | O=C(NCc1ccccn1)Nc1cc(N2CC(CCc3ccccc3)OC2=O)ccn1 (centres unmarked) [Example 44, N-(4-(2-oxo-5-(2-phenylethyl)-1,3-oxazolidin-3-yl)pyridin-2-yl)-N′-(pyridin-2-ylmethyl)urea] | < 100 nM
26 | O=C(NCc1ccccn1)Nc1cc(-n2cc(-c3ccccc3)oc2=O)ccn1 [Example 47, N-(4-(2-oxo-5-phenyl-1,3-oxazol-3(2H)-yl)pyridin-2-yl)-N′-(pyridin-2-ylmethyl)urea] | < 100 nM
27 | O=C(NCc1ccccn1)Nc1cc(N2CC(c3cccs3)OC2=O)ccn1 (centres unmarked) [Example 48, N-(4-(2-oxo-5-(2-thienyl)-1,3-oxazolidin-3-yl)pyridin-2-yl)-N′-(pyridin-2-ylmethyl)urea] | < 100 nM
28 | CC1CCC(=O)N1c1ccnc(NC(=O)NCc2ccccn2)c1 (centres unmarked) [Example 53, N-(4-(2-methyl-5-oxopyrrolidin-1-yl)pyridin-2-yl)-N′-((pyridin-2-yl)methyl)urea] | 100 nM
29 | O=C(NCc1ccccn1)Nc1cc(N2CC3(CCCCC3)CC2=O)ccn1 [Example 54, N-(4-(3-oxo-2-azaspiro[4.5]dec-2-yl)pyridin-2-yl)-N′-(pyridin-2-ylmethyl)urea] | < 100 nM
30 | Cn1c(=O)n(-c2ccnc(NC(=O)NCc3ccccn3)c2)c2ccccc21 [Example 61, N-(4-(3-methyl-2-oxo-2,3-dihydro-1H-benzimidazol-1-yl)pyridin-2-yl)-N′-(pyridin-2-ylmethyl)urea] | < 100 nM
31 | Cc1ccc2c(c1)oc(=O)n2-c1ccnc(NC(=O)NCc2ccccn2)c1 [Example 65, 1-(4-(6-methyl-2-oxo-1,3-benzoxazol-3(2H)-yl)pyridin-2-yl)-3-(pyridin-2-ylmethyl)urea] | < 100 nM
32 | O=C(CCc1cccnc1)Nc1cc(N2CC(c3ccccc3)OC2=O)ccn1 (centres unmarked) [Example 77, N-(4-(2-oxo-5-phenyl-1,3-oxazolidin-3-yl)pyridin-2-yl)-3-(pyridin-3-yl)propanamide] | 190 nM
